Measured values as given in ChEMBL document CHEMBL1128034, “Structure activity of topoisomerase i poisons related to hoechst 33342” (Bioorg Med Chem Lett, 1994).

Key:
Assay type in all cases: functional, cell-based; call rule not given here
PC-3 [1] = assay: Cytotoxicity towards prostatic carcinoma (PC3) cells in human
RPMI 8402 [2] = assay: Cytotoxicity towards lymphoblastoma (RPMI 8402) cells in human
SK-MEL [3] = assay: Cytotoxicity towards melanoma (SK-Mel) cells in human
RPMI 8402 [4] = assay: Cytotoxicity towards camptothecin resistant CPT-K5 cell line in human
SK-MEL [5] = assay: Cytotoxicity towards melanoma (SK-Mel) cells in human; Not active
PC-3 [6] = assay: Cytotoxicity towards prostatic carcinoma (PC3) cells in human; Not active

Structure (SMILES)	IC50 (PC-3 [1])	IC50 (RPMI 8402 [2])	IC50 (SK-MEL [3])	IC50 (RPMI 8402 [4])	IC50 (SK-MEL [5])	IC50 (PC-3 [6])
COc1ccc(-c2nc3cc(-c4nc5cc(CCCN(C)C)ccc5[nH]4)ccc3[nH]2)cc1	28 µM	1200 nM	10 µM	7.1 µM	–	–
COc1ccc(-c2nc3cc(-c4nc5cc(OC6CCN(C)CC6)ccc5[nH]4)ccc3[nH]2)cc1	0.38 µM	< 40 nM	2 µM	0.44 µM	–	–
CCOc1ccc(-c2nc3cc(-c4nc5cc(N6CCN(C)CC6)ccc5[nH]4)ccc3[nH]2)cc1	0.71 µM	5 nM	1.6 µM	0.5 µM	–	–
COc1ccc(-c2nc3cc(-c4nc5cc(CN(C)C)ccc5[nH]4)ccc3[nH]2)cc1	52 µM	380 nM	10 µM	6.3 µM	–	–
COc1ccc(-c2nc3cc(-c4nc5cc(N)ccc5[nH]4)ccc3[nH]2)cc1	19 µM	1700 nM	6.2 µM	14 µM	–	–
COc1ccc(-c2nc3cc(-c4nc5cc(N(C)C)ccc5[nH]4)ccc3[nH]2)cc1	4.9 µM	130 nM	26 µM	0.65 µM	–	–
COc1ccc(-c2nc3cc(-c4nc5cc(CCN(C)C)ccc5[nH]4)ccc3[nH]2)cc1	43 µM	610 nM	8.5 µM	6.1 µM	–	–
COc1ccc(-c2nc3cc(-c4nc5cc([N+](=O)[O-])ccc5[nH]4)ccc3[nH]2)cc1	–	650 nM	–	3.9 µM	Not Active	Not Active
COc1ccc(-c2nc3cc(-c4nc5cc(N6CCN(C)CC6)ccc5[nH]4)ccc3[nH]2)cc1	0.84 µM	< 50 nM	1.1 µM	0.57 µM	–	–
